Target: TRPA1 (Homo sapiens, UniProt O75762)
Assay: calcium flux in TRPA1-overexpressing HEK-293 cells
Assay type: cell-based

Chain of TRPA1 (O75762 whole entry): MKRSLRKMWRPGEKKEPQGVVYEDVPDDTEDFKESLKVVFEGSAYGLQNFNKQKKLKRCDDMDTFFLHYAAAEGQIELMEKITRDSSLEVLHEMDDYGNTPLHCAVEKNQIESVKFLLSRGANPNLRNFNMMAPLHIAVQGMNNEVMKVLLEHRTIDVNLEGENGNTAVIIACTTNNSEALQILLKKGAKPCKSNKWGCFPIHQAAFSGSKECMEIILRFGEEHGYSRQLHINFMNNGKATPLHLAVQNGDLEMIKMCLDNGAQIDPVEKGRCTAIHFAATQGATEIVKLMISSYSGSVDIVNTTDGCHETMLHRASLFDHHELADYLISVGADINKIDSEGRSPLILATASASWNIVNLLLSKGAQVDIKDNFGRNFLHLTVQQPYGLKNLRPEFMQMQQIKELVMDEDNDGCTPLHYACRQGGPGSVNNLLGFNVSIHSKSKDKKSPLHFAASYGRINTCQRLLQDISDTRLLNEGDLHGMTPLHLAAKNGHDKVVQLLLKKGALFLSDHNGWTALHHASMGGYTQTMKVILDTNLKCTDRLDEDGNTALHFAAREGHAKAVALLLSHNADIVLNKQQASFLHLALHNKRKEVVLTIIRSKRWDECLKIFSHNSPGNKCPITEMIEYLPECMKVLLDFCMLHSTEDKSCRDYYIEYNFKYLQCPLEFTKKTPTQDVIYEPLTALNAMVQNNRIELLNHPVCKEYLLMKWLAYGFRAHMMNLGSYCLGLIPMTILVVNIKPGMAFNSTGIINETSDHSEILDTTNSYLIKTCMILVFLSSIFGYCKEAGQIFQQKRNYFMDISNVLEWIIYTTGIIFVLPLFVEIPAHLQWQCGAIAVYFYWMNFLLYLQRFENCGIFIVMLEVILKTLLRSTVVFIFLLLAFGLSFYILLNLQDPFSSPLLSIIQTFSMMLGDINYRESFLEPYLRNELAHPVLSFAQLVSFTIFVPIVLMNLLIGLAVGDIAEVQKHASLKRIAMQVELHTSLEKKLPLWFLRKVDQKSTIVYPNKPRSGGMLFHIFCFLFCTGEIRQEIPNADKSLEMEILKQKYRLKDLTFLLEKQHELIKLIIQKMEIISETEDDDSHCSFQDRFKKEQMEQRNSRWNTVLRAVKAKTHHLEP

CC(C)(C)c1ccc(O)c(C(C)(C)C)c1 [2,4-DTBP]
EC50: 225 µM
